ChEMBL document CHEMBL1201862, “PubChem BioAssay data set” (2004)
Calls of active or inactive are those of the source.

What was measured:
[1] = biological target: T1, Mannose-6-phosphate isomerase (Homo sapiens, UniProt P34949); assay: human PMI inhibitors, high substrate, primary screen, biochemical, fluorescence intensity, high mannose 6-phosphate (AID 1220)
T1 sequence (P34949 whole entry): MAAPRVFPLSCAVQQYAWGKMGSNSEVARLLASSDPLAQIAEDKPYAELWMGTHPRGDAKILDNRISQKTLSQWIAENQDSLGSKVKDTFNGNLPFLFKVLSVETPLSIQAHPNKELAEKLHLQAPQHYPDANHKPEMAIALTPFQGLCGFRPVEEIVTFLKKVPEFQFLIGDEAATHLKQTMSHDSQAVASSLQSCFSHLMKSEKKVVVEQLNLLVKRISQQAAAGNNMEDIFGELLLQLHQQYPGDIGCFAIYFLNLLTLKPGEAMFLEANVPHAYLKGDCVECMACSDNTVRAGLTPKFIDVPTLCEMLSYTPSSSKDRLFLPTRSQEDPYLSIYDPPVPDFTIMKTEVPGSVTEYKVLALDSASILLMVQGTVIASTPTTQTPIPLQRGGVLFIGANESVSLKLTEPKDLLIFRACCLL

[2] = biological target: T2, DNA repair protein RAD52 homolog (Homo sapiens, UniProt P43351); assay type: functional, biochemical
T2 sequence (P43351 whole entry): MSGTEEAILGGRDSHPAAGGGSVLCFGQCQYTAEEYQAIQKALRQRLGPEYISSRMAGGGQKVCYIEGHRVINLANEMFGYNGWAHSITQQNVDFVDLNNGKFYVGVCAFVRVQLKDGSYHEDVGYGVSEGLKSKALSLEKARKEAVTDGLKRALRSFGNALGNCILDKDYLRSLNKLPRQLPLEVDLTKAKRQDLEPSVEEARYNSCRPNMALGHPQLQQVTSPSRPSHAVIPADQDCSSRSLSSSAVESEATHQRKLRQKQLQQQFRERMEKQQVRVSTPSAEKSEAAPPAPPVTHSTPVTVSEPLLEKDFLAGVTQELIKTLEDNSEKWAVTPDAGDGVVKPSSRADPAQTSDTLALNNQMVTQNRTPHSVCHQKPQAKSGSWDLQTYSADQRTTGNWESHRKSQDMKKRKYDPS

[3] = cytotoxicity in HEK-293T cells, dose response, cytotoxicity control for TCR NF-kB inhibitor project, luminescence, T-cell screen hits (AID 489026); assay type: functional, cell-based;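 further: cells exposed to compound about 14 hours before the viability readout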
[4] = biological target: T3, High affinity choline transporter 1 (Homo sapiens, UniProt Q9GZV3); assay: CHT inhibitors, dose response, cell-based, 5-point CRC, membrane potential dye (AID 504840); assay type: functional
T3 sequence (Q9GZV3 whole entry): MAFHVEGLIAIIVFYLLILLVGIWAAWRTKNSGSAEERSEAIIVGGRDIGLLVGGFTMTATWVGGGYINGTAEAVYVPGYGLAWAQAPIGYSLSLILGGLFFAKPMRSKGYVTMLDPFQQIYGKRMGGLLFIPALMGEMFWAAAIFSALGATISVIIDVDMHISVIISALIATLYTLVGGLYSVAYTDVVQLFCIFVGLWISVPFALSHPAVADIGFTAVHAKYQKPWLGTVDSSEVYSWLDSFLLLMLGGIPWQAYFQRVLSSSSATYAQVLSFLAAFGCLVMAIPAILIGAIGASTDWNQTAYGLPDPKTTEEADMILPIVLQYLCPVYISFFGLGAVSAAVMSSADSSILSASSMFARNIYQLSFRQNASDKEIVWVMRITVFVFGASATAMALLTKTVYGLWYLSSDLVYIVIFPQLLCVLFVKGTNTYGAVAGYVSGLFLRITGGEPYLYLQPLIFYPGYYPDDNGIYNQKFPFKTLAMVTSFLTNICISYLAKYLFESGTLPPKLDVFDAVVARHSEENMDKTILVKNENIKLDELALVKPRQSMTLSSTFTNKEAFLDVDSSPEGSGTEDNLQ

[5] = biological target: T4, Corticotropin-releasing factor receptor 2/Corticotropin-releasing factor-binding protein (Homo sapiens, UniProt P24387+Q13324); assay: activators of CRF receptor 2 with binding protein – uHTS hits, confirmation (AID 602473); assay type: functional; conditions: read-out: EC50_Mean
T4 sequence (Q13324 whole entry): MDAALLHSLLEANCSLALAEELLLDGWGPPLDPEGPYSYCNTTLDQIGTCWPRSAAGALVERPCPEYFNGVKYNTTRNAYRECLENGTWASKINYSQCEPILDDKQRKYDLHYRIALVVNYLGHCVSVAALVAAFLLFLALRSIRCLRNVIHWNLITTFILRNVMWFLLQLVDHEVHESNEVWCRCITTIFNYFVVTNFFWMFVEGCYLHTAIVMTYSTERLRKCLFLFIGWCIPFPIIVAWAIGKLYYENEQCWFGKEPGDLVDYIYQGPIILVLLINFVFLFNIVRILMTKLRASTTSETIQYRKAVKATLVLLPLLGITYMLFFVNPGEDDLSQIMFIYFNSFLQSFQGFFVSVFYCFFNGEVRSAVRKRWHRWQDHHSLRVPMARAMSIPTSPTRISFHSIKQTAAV
T4 sequence (P24387 whole entry): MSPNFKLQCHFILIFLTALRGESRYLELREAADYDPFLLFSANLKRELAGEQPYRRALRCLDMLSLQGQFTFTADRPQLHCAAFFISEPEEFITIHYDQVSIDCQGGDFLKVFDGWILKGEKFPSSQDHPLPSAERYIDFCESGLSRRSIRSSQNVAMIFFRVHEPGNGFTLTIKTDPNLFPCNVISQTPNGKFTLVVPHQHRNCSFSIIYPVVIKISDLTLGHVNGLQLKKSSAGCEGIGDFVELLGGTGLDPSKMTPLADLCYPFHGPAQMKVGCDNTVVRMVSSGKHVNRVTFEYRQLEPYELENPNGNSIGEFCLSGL

[6] = inhibitors of intracellular T. cruzi replication, confirmation, NIH3T3 host cells, beta-gal luminescence (AID 2044); assay type: functional, cell-based;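 further: intracellular parasites grown in NIH/3T3 mouse fibroblasts as host cells; luminescent beta-galactosidase reporter signal from transgenic T. cruzi replicating inside host cells; inhibitors lower the luminescence signal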
[7] = cytotoxicity toward NIH3T3 fibroblasts, dose response, counter-screen, cell-based, ATP luminescence, mouse fibroblasts (AID 2010); assay type: functional;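 further: cells exposed to compound for about 90 hours before reading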
[8] = CRF-BP/CRF-R2 complex antagonists, dose response, cell-based, uHTS hits, 384-well (AID 651639); assay type: functional, Homo sapiens; conditions: read-out: IC50_Mean
[9] = biological target: T4, Corticotropin-releasing factor receptor 2/Corticotropin-releasing factor-binding protein; assay: Dose Response confirmation of uHTS hits for small molecule antagonists of the CRF-binding protein and CRF-R2 receptor complex.; assay type: functional; conditions: read-out: IC50_Mean
[10] = biological target: Eukaryotic translation initiation factor 4E (Mus musculus, UniProt P63073); assay: eIF4E–eIF4G protein interaction inhibitors, dose response, biochemical, TR-FRET (AID 855); assay type: functional;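 further: potency for disrupting eIF4E binding to eIF4GI seen as loss of FRET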
[11] = biological target: DNA dC->dU-editing enzyme APOBEC-3G (Homo sapiens, UniProt Q9HC16); assay: Dose Response confirmation of small molecule APOBEC3G DNA Deaminase Inhibitors via a fluorescence-based single-stranded DNA deaminase assay. [Related pubchem assays (depositor defined):AID493012, AID493028]; assay type: functional
[12] = biological target: Peroxisome proliferator-activated receptor gamma/Nuclear receptor coactivator 1 (Homo sapiens, UniProt P37231); assay: (§1) TR-FRET dose response biochemical High Throughput Screening assay for agonists of the steroid receptor coactivator 1 (SRC-1) recruitment by the peroxisome proliferator-activated receptor gamma (PPAR gamma): non-selective agonists. [Related pubchem assays (depositor defined):AID1300, AID1808, AID504735, AID631]; assay type: protein assay
[13] = biological target: Peroxisome proliferator-activated receptor gamma/Nuclear receptor coactivator 3 (Homo sapiens, UniProt P37231); assay: as §1, with “3 (SRC-3)” for “1 (SRC-1)”, “assays: 1301 (Confirmation screen.), 1048 (Primary screen.)]” for “assays (depositor defined):AID1300, AID1808, AID504735, AID631]”; assay type: functional
[14] = biological target: Peroxisome proliferator-activated receptor gamma/Nuclear receptor coactivator 2 (Homo sapiens, UniProt P37231); assay: TR-FRET dose response biochemical High Throughput Screening assay for agonists of the steroid receptor coactivator 2 (SRC-2) recruitment by the peroxisome proliferator-activated receptor gamma (PPAR gamma): non-selective agonists. [Related pubchem assays: 1297, 1032 ]; assay type: functional
[15] = biological target: G-protein coupled receptor 55 (Homo sapiens, UniProt Q9Y2T6); assay: GPR55 agonists via beta-arrestin recruitment, primary screen, imaging, U2OS cells, beta-arrestin-GFP redistribution (AID 1961); assay type: functional
[16] = HEp-2 cell cytotoxicity, dose response, cytotoxicity control for RSV inhibitor project, HTS (AID 2410); assay type: functional; conditions: human respiratory syncytial virus
Cytochrome P450 2D6 = Cytochrome P450 2D6 (Homo sapiens, UniProt P10635);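 further: CYP2D6 member of a cytochrome P450 panel assay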
Prothrombin = Prothrombin (Homo sapiens, UniProt P00734); assay: Thrombin 1536 HTS Dose Response Confirmation. [Related pubchem assays: 1046 (Thrombin 1536 HTS; hits were confirmed in this assay)]; assay type: functional
[17] = off-target signal loss in HeLa-CEM21 co-culture – HeLa F-luc CTL cells, cherry-picked, counter-screen for HIV-1 Env fusion inhibitor project, dose response (AID 652040); assay type: functional, cell-based;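 further: potency for signal decrease marking cytotoxic or nonspecific inhibition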
[18] = inhibitors of HIV Env-driven cell fusion, dose response, cherry-pick (AID 652057); assay type: functional, cell-based
[19] = inhibitors of clade B AD8 Env fusion, dose response, cell-based, cherry-pick (AID 652062); assay type: functional;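 further: luciferase signal from cell-cell fusion driven by HIV-1 clade B AD8 Env; potency is for inhibitors of fusion seen as a drop in luminescence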
[20] = ZM109 Env clade C HIV-1 fusion inhibitors, dose response, HeLa effector, CEM target cells, luciferase, cherry-pick (AID 652058); assay type: functional, cell-based

Chain of Peroxisome proliferator-activated receptor gamma/Nuclear receptor coactivator 3 (P37231 whole entry): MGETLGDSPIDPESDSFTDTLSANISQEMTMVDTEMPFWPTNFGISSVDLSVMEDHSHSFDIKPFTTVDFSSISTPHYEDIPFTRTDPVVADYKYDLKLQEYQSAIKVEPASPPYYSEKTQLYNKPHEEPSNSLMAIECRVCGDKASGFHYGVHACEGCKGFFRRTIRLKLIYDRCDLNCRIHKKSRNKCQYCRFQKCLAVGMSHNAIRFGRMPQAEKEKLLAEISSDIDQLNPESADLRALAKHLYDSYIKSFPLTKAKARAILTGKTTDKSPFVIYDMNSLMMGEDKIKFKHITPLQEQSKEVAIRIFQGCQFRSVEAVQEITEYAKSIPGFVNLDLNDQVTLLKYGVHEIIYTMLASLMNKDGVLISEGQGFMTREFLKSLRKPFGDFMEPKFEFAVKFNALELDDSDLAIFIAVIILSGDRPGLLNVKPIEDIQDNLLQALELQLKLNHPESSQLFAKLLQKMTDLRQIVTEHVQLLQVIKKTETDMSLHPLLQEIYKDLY
Chain of Peroxisome proliferator-activated receptor gamma/Nuclear receptor coactivator 3 (Q9Y6Q9 whole entry, further chain): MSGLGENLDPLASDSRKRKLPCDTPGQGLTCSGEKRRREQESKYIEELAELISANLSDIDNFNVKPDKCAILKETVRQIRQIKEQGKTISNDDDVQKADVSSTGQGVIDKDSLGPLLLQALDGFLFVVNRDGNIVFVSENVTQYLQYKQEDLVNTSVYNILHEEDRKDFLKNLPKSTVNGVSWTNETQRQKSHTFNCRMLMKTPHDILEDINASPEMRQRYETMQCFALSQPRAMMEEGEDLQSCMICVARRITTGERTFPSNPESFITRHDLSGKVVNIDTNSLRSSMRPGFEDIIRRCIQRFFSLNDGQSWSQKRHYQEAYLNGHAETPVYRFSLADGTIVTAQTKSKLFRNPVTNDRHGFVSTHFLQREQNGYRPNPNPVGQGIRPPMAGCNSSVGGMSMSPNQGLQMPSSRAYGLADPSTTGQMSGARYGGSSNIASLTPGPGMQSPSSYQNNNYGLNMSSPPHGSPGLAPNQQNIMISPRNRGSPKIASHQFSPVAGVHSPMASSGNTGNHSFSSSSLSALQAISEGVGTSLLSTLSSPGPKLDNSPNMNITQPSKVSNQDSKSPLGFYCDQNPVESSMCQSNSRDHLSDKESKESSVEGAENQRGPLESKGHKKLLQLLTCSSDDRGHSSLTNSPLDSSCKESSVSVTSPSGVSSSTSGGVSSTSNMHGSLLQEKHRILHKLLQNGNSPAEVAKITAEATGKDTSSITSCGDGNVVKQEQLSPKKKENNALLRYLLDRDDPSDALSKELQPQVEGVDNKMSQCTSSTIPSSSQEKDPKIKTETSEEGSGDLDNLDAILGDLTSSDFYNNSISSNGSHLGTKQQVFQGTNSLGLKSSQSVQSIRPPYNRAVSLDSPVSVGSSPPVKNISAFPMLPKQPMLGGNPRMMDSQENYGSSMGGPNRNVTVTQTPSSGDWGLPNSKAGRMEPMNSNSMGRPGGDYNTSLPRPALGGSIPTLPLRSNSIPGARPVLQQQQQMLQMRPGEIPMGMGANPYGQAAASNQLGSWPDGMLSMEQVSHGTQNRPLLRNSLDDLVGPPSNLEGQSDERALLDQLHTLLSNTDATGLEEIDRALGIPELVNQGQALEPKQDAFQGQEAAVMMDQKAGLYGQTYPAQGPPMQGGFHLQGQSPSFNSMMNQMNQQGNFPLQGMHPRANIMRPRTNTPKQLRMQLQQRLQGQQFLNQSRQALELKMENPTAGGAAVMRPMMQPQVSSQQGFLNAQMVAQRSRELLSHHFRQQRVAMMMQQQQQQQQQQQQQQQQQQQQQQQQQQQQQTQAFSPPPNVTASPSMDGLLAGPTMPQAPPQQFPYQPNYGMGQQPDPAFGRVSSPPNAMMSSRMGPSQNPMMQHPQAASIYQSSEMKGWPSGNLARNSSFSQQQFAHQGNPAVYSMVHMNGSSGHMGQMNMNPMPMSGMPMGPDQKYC
Chain of Peroxisome proliferator-activated receptor gamma/Nuclear receptor coactivator 2 (P37231 whole entry): as the sequence (P37231 whole entry) above
Chain of Peroxisome proliferator-activated receptor gamma/Nuclear receptor coactivator 2 (Q15596 whole entry, further chain): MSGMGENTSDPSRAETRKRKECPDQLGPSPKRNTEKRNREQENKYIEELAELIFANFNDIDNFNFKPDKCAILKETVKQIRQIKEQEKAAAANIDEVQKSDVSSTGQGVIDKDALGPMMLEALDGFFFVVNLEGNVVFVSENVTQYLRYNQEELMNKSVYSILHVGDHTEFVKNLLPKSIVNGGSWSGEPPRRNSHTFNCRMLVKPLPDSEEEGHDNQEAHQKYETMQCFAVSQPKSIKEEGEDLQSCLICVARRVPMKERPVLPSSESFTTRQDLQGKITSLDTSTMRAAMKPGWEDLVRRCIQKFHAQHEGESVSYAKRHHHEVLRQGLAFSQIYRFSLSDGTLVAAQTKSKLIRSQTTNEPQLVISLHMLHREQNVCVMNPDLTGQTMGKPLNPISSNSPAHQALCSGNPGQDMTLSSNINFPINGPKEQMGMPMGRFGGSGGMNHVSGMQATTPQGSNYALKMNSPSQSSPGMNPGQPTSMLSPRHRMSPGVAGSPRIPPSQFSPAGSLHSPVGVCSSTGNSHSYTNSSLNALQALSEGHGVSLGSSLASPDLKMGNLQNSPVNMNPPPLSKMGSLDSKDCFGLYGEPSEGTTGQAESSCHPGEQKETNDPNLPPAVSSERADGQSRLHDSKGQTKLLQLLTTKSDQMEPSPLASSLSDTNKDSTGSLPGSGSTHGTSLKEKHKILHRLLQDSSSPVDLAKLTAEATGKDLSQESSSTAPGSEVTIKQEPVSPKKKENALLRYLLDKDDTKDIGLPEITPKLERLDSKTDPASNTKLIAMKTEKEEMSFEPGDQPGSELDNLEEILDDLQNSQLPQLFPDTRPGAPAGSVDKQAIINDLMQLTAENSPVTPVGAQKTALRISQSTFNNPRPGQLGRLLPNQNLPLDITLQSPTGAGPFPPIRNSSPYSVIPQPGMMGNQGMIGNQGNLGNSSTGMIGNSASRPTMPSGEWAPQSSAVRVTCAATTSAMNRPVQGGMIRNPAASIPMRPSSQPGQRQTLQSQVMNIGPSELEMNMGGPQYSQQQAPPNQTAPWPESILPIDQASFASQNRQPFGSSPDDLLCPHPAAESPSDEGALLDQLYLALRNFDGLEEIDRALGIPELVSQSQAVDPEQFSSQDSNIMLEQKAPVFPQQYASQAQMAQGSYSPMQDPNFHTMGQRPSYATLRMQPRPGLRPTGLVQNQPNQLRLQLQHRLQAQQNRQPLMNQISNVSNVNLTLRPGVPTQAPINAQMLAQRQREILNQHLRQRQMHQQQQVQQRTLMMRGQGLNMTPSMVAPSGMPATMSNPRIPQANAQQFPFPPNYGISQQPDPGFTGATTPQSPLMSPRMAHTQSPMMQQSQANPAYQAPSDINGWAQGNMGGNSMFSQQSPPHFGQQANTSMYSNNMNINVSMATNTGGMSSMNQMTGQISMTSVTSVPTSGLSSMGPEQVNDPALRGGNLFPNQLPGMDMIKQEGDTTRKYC
Chain of DNA dC->dU-editing enzyme APOBEC-3G (Q9HC16 whole entry): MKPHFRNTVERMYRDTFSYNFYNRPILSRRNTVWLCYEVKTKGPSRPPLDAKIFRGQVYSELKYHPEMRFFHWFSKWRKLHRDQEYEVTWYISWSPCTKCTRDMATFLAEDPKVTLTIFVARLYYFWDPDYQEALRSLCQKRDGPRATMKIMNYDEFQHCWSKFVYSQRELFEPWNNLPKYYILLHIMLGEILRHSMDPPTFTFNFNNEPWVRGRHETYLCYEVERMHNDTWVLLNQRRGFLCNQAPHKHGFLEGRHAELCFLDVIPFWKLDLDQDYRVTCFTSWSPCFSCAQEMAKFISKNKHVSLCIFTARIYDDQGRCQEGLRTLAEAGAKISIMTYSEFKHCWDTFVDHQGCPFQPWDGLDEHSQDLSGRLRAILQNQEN
Chain of Eukaryotic translation initiation factor 4E (P63073 whole entry): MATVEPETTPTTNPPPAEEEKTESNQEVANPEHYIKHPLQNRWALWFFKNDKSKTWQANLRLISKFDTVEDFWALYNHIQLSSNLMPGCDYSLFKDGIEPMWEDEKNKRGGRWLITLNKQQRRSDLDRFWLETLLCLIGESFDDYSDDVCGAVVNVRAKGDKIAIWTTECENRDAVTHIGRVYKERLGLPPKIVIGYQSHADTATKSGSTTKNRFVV
Chain of Cytochrome P450 2D6 (P10635 whole entry): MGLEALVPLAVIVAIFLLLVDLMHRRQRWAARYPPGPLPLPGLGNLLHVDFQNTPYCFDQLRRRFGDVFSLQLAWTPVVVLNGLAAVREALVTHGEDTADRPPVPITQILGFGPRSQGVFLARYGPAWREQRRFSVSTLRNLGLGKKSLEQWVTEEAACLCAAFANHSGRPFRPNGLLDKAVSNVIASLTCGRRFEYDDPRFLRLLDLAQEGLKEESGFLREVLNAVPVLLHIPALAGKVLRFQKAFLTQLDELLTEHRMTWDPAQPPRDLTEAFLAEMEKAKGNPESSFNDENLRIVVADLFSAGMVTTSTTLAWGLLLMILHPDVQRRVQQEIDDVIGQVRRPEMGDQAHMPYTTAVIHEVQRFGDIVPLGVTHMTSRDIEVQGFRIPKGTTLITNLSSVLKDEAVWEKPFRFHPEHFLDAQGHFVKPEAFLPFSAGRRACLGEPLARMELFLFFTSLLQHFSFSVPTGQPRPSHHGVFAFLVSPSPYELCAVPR

SMILES: CCN(CC)C(=S)SC1=CCS(=O)(=O)C1
- IC50 [1]: 24.5 µM (active)

SMILES: Cc1ccc2nc(NC(=N)N)nc(C)c2c1
- AC50 [2]: 12.6 µM (active)

SMILES: CCOC(=O)c1[nH]c(C)c(C(=O)Nc2ccccc2C)c1C
- IC50 [3]: > 80 µM (inactive)

SMILES: CSc1ccc(S(=O)(=O)N2CCC(C(=O)N3CCc4ccccc4C3)CC2)cc1
- IC50 [4]: 17.4 µM (active)

SMILES: O=C(Nc1nc2ccc(S(=O)(=O)N3CCCC3)cc2s1)c1ccccn1
- EC50 [5]: > 53 µM (inactive)
- EC50 [6]: 2.15 µM (active)
- EC50 [7]: 5.13 µM (active)
- IC50 [8]: > 20 µM (inactive)
- IC50 [9]: 28.6 µM (active)

SMILES: COc1ccc2c(c1)OC(O)(C(F)(F)C(F)F)CC2=O (centres undefined)
- EC50 [5]: 15.6 µM (active)
- IC50 [4]: 13.2 µM (active)

SMILES: CCN(CC)S(=O)(=O)c1cc(F)ccc1OC
- IC50 [10]: > 64 µM (inactive)

SMILES: CCc1ccc(-n2c(C)nnc2S)cc1
- IC50 [11]: 14.6 µM (active)

SMILES: COC(=O)c1ccccc1NC(=O)COC(=O)c1ccc(C)c(NC(=O)c2ccco2)c1
- IC50 [10]: > 64 µM (inactive)

SMILES: COCCNc1nc2c(S(=O)(=O)c3cc(C)ccc3C)nnn2c2ccccc12
- EC50 [5]: > 53 µM (inactive)
- IC50 [8]: 10.6 µM (active)
- IC50 [9]: 39 µM (active)

SMILES: CCOC(=O)C1CCN(C(=O)CSc2cc(=O)n(CC)c3ccccc23)CC1
- EC50 [12]: > 79.4 µM (inactive)
- EC50 [13]: > 79.4 µM (not active)
- EC50 [14]: > 79.4 µM (not active)

SMILES: CCOC(=O)c1sc2cc([N+](=O)[O-])cc(SCC(C)C)c2c1N
- EC50 [15]: 0.523 µM (active)

SMILES: COc1ccc(/C=C/C(=O)NCc2cn(C)nc2C)cc1COc1ccc(Cl)cc1Br
- EC50 [5]: > 53 µM (inactive)
- IC50 [8]: > 20 µM (inactive)
- IC50 [9]: 6.89 µM (active)

SMILES: N#Cc1c2ccc(OCC(N)=O)cc2n2ccccc12
- IC50 [1]: > 50 µM (not active)

SMILES: CCn1c(SCc2c(Cl)cccc2Cl)nnc1-c1nn(-c2ccccc2)ccc1=O
- IC50 (cells): 33.7 µM (active)
- CC50 [16]: 49.8 µM (active)

SMILES: CC(=O)Oc1cc(OC(C)=O)c2c(C)cc(=O)oc2c1
- IC50 (cells): 25.3 µM (active)

SMILES: CC(C)(C)C1=Nn2c(nnc2-c2n[nH]c3c2CCC3)SC1
- IC50 [11]: 23.3 µM (active)
- IC50 [1]: > 50 µM (not active)

SMILES: CCOC(=O)c1ccccc1Oc1c(F)c(F)nc(NCCO)c1F
- AC50 (Cytochrome P450 2D6): 20 µM (inconclusive)
- IC50 [4]: 14.5 µM (active)
- IC50 (Prothrombin): > 50 µM (not active)

SMILES: COc1cc(C(C(=O)NC2CCCCC2)N(C(=O)c2snc(C(N)=O)c2N)c2ccc(C)cc2)ccc1O (centres undefined)
- IC50 (cells): 47 µM (active)
- CC50 [16]: > 50 µM (active)

SMILES: O=C(O)Cc1sc(-c2ccccc2)nc1-c1cccs1
- EC50 [12]: 94.8 µM (inactive)
- EC50 [13]: > 79.4 µM (not active)
- EC50 [14]: 26 µM (not active)

SMILES: CN(CC(=O)NCCc1ccc(S(N)(=O)=O)cc1)CC(=O)Nc1ccc(Cl)c(C(F)(F)F)c1
- AC50 [17]: 7.96 µM (active)
- AC50 [18]: 5.63 µM (active)
- AC50 [19]: 11.9 µM (active)
- AC50 [20]: 2.95 µM (active)

SMILES: COc1ccc(OC(=O)N(C)C[C@@H]2OCc3ccccc3-c3c(n(C)c4ccccc34)C(=O)N([C@H](C)CO)C[C@@H]2C)cc1
- AC50 [17]: 2.43 µM (active)
- AC50 [18]: 1.62 µM (active)
- AC50 [19]: 3.25 µM (active)
- AC50 [20]: 1.44 µM (active)

SMILES: N=C(N)Nc1ccc(/C=C2\C=Cc3ccccc32)cc1
- AC50 [2]: 13.2 µM (active)

SMILES: CC1=C(c2ccccc2)C(O)(c2ccccc2)C(C)C1=O (centres undefined)
- EC50 [5]: > 53 µM (inactive)
- IC50 [8]: 8.13 µM (active)
- IC50 [9]: 13.9 µM (active)

SMILES: COc1ccc(S(=O)(=O)Nc2ccc3c(c2)CC(=O)N([C@@H](C)CO)C[C@H](C)[C@H](CN(C)S(=O)(=O)c2ccccc2)O3)cc1
- AC50 [18]: 2.12 µM (active)
- AC50 [19]: 11.6 µM (active)
- AC50 [20]: 1.82 µM (active)

SMILES: COc1ccc(C2=Nn3c(nnc3-c3ccccc3OC)SC2)cc1OC1CCCC1
- IC50 [3]: 35.9 µM (inactive)
